Ends that are not written are not given here.
Legend:
[1] = tested on: human pancreatic ductal epithelial cells (HPNE)
[2] = tested on: human bronchial epithelial cells (BEAS-2B)
[3] = tested on: human umbilical vein endothelial cells (HUVEC)
Description: (§1) The cytotoxicity of 73 synthetic peptides was evaluated using four human cell lines: human pancreatic ductal epithelial cells (HPNE), human embryonic kidney cells (HEK293T), human umbilical vein endothelial cells (HUVEC), and human bronchial epithelial cells (BEAS-2B). When cell density reached 70% confluence, the complete culture medium was replaced with serum-free maintenance medium, and peptides were added at a final concentration of 100 μM for 36 h. Control groups received only serum-free maintenance medium without peptides. Cell proliferation was assessed using the CCK-8 assay kit (Solarbio, CA1210) according to the manufacturer’s instructions.

[4] = Electronic tongue analysis (Taste-Sensing System SA 402B); set-up: unit not given here; details: reference solution 30 mM KCl + 0.3 mM tartaric acid as baseline, first measurement excluded; for Umami: sensor AAE; for Umami / Bitter / Sweet: detection threshold 0, room temperature; for Umami / Bitter / Sour / Salty: four replicates; for Sour: detection threshold -13, room temperature; for Salty: detection threshold -6, room temperature; for Sweet: measured five times
Procedure, shortened: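 Samples were tested at 0.1 and 1.0 mg/mL on an SA 402B e-tongue fitted with sourness, saltiness, bitterness, sweetness and umami sensors, with 30 mM KCl/0.3 mM tartaric acid as reference and baseline. Thresholds were −13 for sour, −6 for salty and 0 for the rest. Runs at room temperature: four replicates, five for sweetness, first reading discarded.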

[5] = tested on: human embryonic kidney cells (HEK293T)
Description: as §1

| Substance | Average cell viability, HPNE [1] | Cell viability, HPNE, Data1 [1] | Cell viability, HPNE, Data2 [1] | Cell viability, HPNE, Data3 [1] | Average cell viability, BEAS-2B [2] | Cell viability, BEAS-2B, Data1 [2] | Cell viability, BEAS-2B, Data2 [2] | Cell viability, BEAS-2B, Data3 [2] | Average cell viability, HUVEC [3] | Cell viability, HUVEC, Data1 [3] | Cell viability, HUVEC, Data2 [3] | Cell viability, HUVEC, Data3 [3] | Umami ([4]; peptide 1 mg/mL) | Bitter ([4]; sensor C00, peptide 1 mg/mL) | Sour ([4]; sensor CA0, peptide 0.1 mg/mL) | Sour ([4]; sensor CA0, peptide 1 mg/mL) | Salty ([4]; sensor CT0, peptide 1 mg/mL) | Sweet ([4]; sensor GL1, peptide 0.1 mg/mL) | Sweet ([4]; sensor GL1, peptide 1 mg/mL) | Average cell viability, HEK293T [5] | further results |
| --- | --- | --- | --- | --- | --- | --- | --- | --- | --- | --- | --- | --- | --- | --- | --- | --- | --- | --- | --- | --- | --- |
| LNDVE [TaPep66] | 110.62 | 96.14 | 118.00 | 117.70 | 98.04 | 103.39 | 89.73 | 101.00 | 96.70 | 88.85 | 100.59 | 100.67 | -3.37 | 4.03 | -3.77 | 8.49 | 4.47 | 6.93 | -3.10 | 101.96 | Umami ([4]; peptide 0.1 mg/mL): 1.83; Bitter ([4]; sensor C00, peptide 0.1 mg/mL): 7.14; Salty ([4]; sensor CT0, peptide 0.1 mg/mL): -21.50; Cell viability, HEK293T, Data1 [5]: 96.81; Cell viability, HEK293T, Data2 [5]: 102.97; Cell viability, HEK293T, Data3 [5]: 106.09 |
| LNGPQ [TaPep63] | 97.14 | 82.16 | 94.94 | 114.31 | 103.52 | 114.46 | 93.02 | 103.09 | 95.61 | 91.41 | 96.35 | 99.07 | -6.21 | 4.12 | -2.72 | 15.39 | 10.16 | 5.62 | -5.33 | 99.12 | Umami ([4]; peptide 0.1 mg/mL): 1.41; Bitter ([4]; sensor C00, peptide 0.1 mg/mL): 7.27; Salty ([4]; sensor CT0, peptide 0.1 mg/mL): -20.42; Cell viability, HEK293T, Data1 [5]: 94.35; Cell viability, HEK293T, Data2 [5]: 104.86; Cell viability, HEK293T, Data3 [5]: 98.14 |
| LQDVVE [TaPep24] | 93.71 | 94.37 | 92.98 | 93.78 | 113.59 | 103.99 | 117.45 | 119.34 | 103.54 | 91.48 | 106.25 | 112.88 | -3.57 | 3.73 | -4.17 | 9.09 | 4.83 | 6.22 | -4.08 | 99.02 | Cell viability, HEK293T, Data1 [5]: 102.40; Cell viability, HEK293T, Data2 [5]: 97.85; Cell viability, HEK293T, Data3 [5]: 96.81 |
| LQPDAGK [TaPep6] | 97.97 | 95.64 | 99.55 | 98.73 | 102.76 | 91.82 | 107.88 | 108.57 | 102.10 | 91.96 | 115.19 | 99.15 | -5.07 | 2.72 | -4.43 | 10.67 | 12.20 | 8.22 | -5.48 | 98.83 | Umami ([4]; peptide 0.1 mg/mL): 1.99; Bitter ([4]; sensor C00, peptide 0.1 mg/mL): 7.90; Salty ([4]; sensor CT0, peptide 0.1 mg/mL): -19.24; Cell viability, HEK293T, Data1 [5]: 101.83; Cell viability, HEK293T, Data2 [5]: 97.29; Cell viability, HEK293T, Data3 [5]: 97.38 |
| LQPSLEH [TaPep59] | 92.71 | 105.62 | 84.46 | 88.05 | 100.60 | 96.61 | 109.87 | 95.31 | 104.79 | 97.39 | 106.49 | 110.48 | -6.02 | 1.90 | -3.89 | 15.44 | 15.85 | 6.34 | -7.32 | 98.64 | Umami ([4]; peptide 0.1 mg/mL): 1.85; Bitter ([4]; sensor C00, peptide 0.1 mg/mL): 7.83; Salty ([4]; sensor CT0, peptide 0.1 mg/mL): -19.53; Cell viability, HEK293T, Data1 [5]: 100.88; Cell viability, HEK293T, Data2 [5]: 99.94; Cell viability, HEK293T, Data3 [5]: 95.11 |
